Measurements taken from ChEMBL document CHEMBL1127270, “Enantioselective synthesis of PD144723: a potent stereospecific anticonvulsant” (Bioorg Med Chem Lett, 1994).
pIC50: −log10 of the molar value.

Tests used:
Mus musculus [1] = assay: Percent of mice protected in blocking maximal electroshock seizures test at a dose of 100 mg/kg, iv,; type: functional
Mus musculus [2] = assay: Percent of mice protected in blocking maximal electroshock seizures test at a dose of 500 mg/kg, iv,; type: functional
Rattus norvegicus [3] = species: Rattus norvegicus; assay: In vitro percent inhibition of [3H]gabapentin binding at log molar concentration of -7
Rattus norvegicus [4] = species: Rattus norvegicus; assay: In vitro percent inhibition of [3H]gabapentin binding at log molar concentration of -6
Rattus norvegicus [5] = species: Rattus norvegicus; assay: In vitro percent inhibition of [3H]gabapentin binding at log molar concentration of -5
Rattus norvegicus [6] = species: Rattus norvegicus; assay: In vitro percent inhibition of [3H]gabapentin binding at log molar concentration of -4.5
Rattus norvegicus [7] = species: Rattus norvegicus; assay: In vitro percent inhibition of [3H]gabapentin binding at log molar concentration of -6.5
Mus musculus [8] = species: Mus musculus; assay: Effective dose for anticonvulsant activity (blocking maximal electroshock seizures) in male CF-1 strain mice was measured.; type: functional
Rattus norvegicus [9] = species: Rattus norvegicus; assay: In vitro percent inhibition of [3H]gabapentin binding at log molar concentration of -5.5
Rattus norvegicus [10] = species: Rattus norvegicus; assay: In vitro percent inhibition of [3H]gabapentin binding at log molar concentration of -8
Rattus norvegicus [11] = species: Rattus norvegicus; assay: In vitro percent inhibition of [3H]gabapentin binding at log molar concentration of -7.5
[12] = In vitro inhibition of [3H]-gabapentin binding to partially purified rat neocortex synaptic plasma membranes; type: cell membranes, Membrane
Rattus norvegicus [13] = species: Rattus norvegicus; assay: In vitro percent inhibition of [3H]gabapentin binding at log molar concentration of -8.5
Rattus norvegicus [14] = species: Rattus norvegicus; assay: In vitro percent inhibition of [3H]gabapentin binding at log molar concentration of -4
Mus musculus [15] = assay: Percent of mice protected in blocking maximal electroshock seizures test at a dose of 150 mg/kg, iv,; type: functional
Mus musculus [16] = assay: Percent of mice protected in blocking maximal electroshock seizures test at a dose of 750 mg/kg, iv,; type: functional
Mus musculus [17] = assay: Percent of mice protected in blocking maximal electroshock seizures test at a dose of 450 mg/kg, iv,; type: functional
Mus musculus [18] = assay: Percent of mice protected in blocking maximal electroshock seizures test at a dose of 75 mg/kg, iv,; type: functional
Mus musculus [19] = assay: Percent of mice protected in blocking maximal electroshock seizures test at a dose of 50 mg/kg, iv,; type: functional

## CC(C)C[C@@H](CN)CC(=O)O
Mus musculus [1]
  Protection: ~94%
Mus musculus [2]
  Protection: ~1%
Rattus norvegicus [3]
  inhibition: 8%
Rattus norvegicus [4]
  inhibition: 60%
Rattus norvegicus [5]
  inhibition: 80%
Rattus norvegicus [6]
  inhibition: 90%
Rattus norvegicus [7]
  inhibition: 38%
Mus musculus [8]
  ED50: > 300 mg/kg
Rattus norvegicus [9]
  inhibition: 80%
Rattus norvegicus [10]
  inhibition: 0%
Rattus norvegicus [11]
  inhibition: 10%
[12]
  pIC50: 6.21

## CC(C)CC(CN)CC(=O)O (racemic)
Rattus norvegicus [3]
  inhibition: 50%
Rattus norvegicus [13]
  inhibition: 10%
Rattus norvegicus [4]
  inhibition: 90%
Rattus norvegicus [5]
  inhibition: 94%
Rattus norvegicus [6]
  inhibition: 98%
Rattus norvegicus [7]
  inhibition: 74%
Rattus norvegicus [14]
  inhibition: 100%
Rattus norvegicus [9]
  inhibition: 92%
Rattus norvegicus [10]
  inhibition: 12%
Rattus norvegicus [11]
  inhibition: 30%
[12]
  pIC50: 7.08

## NCC1(CC(=O)O)CCCCC1 [GABAPENTIN]
Mus musculus [15]
  Protected: ~75%
Mus musculus [16]
  Protected: ~99%
Mus musculus [17]
  Protected: ~74%
Mus musculus [18]
  Protected: ~70%
Mus musculus [8]
  ED50: 87 mg/kg
[12]
  pIC50: 7.10
Mus musculus [19]
  Protected: ~1%

## CC(C)C[C@H](CN)CC(=O)O [PREGABALIN]
Rattus norvegicus [3]
  inhibition: 75%
Rattus norvegicus [4]
  inhibition: 90%
Rattus norvegicus [5]
  inhibition: 98%
Rattus norvegicus [6]
  inhibition: 100%
Rattus norvegicus [7]
  inhibition: 85%
Mus musculus [8]
  ED50: 20 mg/kg
Rattus norvegicus [9]
  inhibition: 94%
Rattus norvegicus [10]
  inhibition: 25%
Rattus norvegicus [11]
  inhibition: 50%
[12]
  pIC50: 7.43
